Columns and labels:
MRC5 = assay: Antiproliferative activity against human MRC5 cells at 10 ug/ml after 72 hrs by resazurin dye-based spectrophotometric analysis relative to control; type: functional; settings: dose 10 µg/ml
Zika virus [1] = assay: Inhibition of NS5 in Zika virus at 10 ug/ml after 10 mins in presence of nucleotide mix by fluorescence assay; settings: dose 10.0 µg/ml
Zika virus [2] = assay: Inhibition of NS5 in Zika virus at 1 ug/ml after 10 mins in presence of nucleotide mix by fluorescence assay; settings: dose 1.0 µg/ml
Zika virus [3] = assay: Inhibition of NS5 in Zika virus at 50 ug/ml after 10 mins in presence of nucleotide mix by fluorescence assay; settings: dose 50.0 µg/ml
Dengue virus [4] = assay: Inhibition of DENV RNA-dependent RNA polymerase at 1 ug/ml; settings: dose 1.0 µg/ml
Dengue virus [5] = assay: Inhibition of DENV RNA-dependent RNA polymerase at 10 ug/ml; settings: dose 10.0 µg/ml
Dengue virus [6] = assay: Inhibition of DENV RNA-dependent RNA polymerase at 50 ug/ml; settings: dose 50.0 µg/ml
Dengue virus [7] = assay: Inhibition of DENV RNA-dependent RNA polymerase at 10 uM
[8] = Inhibition of DENV RNA-dependent RNA polymerase; set-up: species or system Dengue virus

Row | SMILES | Activity (MRC5) [%] | inhibition (Zika virus [1]) [%] | inhibition (Zika virus [2]) [%] | inhibition (Zika virus [3]) [%] | inhibition (Dengue virus [4]) [%] | inhibition (Dengue virus [5]) [%] | inhibition (Dengue virus [6]) [%] | inhibition (Dengue virus [7]) [%] | IC50 [8] [µM]
1 | CC1=C[C@@H]2C[C@H](O)C[C@H](C)[C@H]2[C@H](/C=C/C=C/C(=O)O)[C@@H]1/C(C)=C/CO | 85.8 | 5.5 | 8.5 | 18.4 | 6.5 | 28.7 | 43.9 | – | –
2 | Nc1ncnc2c1ncn2[C@@H]1O[C@H](COP(=O)(O)OP(=O)(O)OP(=O)(O)O)C[C@H]1O | – | – | – | – | – | – | – | 96.1 | –
3 | CC(=O)OC/C=C(\C)[C@@H]1C(C)=C[C@@H]2CC(=O)C[C@H](C)[C@H]2[C@@H]1/C=C/C=C/C(=O)O | 98.8 | 19.3 | 13.8 | 25.4 | 0 | 36.4 | 64.6 | – | –
4 | CC(=O)OC/C=C(\C)[C@@H]1C(C)=C[C@@H]2C[C@H](O)C[C@H](C)[C@H]2[C@@H]1/C=C/C=C/C(=O)O | 98.5 | 3.3 | 0 | 32 | 4.7 | 28.9 | 52.3 | – | –
5 | CC1=C[C@@H]2CC(=O)C[C@H](C)[C@H]2[C@H](/C=C/C=C/C(=O)O)[C@@H]1/C(C)=C/CO | 100 | 0 | 0 | 25.5 | 0 | 23.8 | 36.7 | – | –
6 | C/C=C(\C)[C@@H]1C(C)=C[C@@H]2C[C@H](O)C[C@H](C)[C@H]2[C@@H]1/C=C/C=C/C(=O)O | 99 | 27.6 | 4.9 | 50.9 | 6.4 | 46 | 85 | – | 19
7 | CC1=C[C@@H]2C[C@@H](O)C[C@H](C)[C@H]2[C@H](/C=C/C=C/C(=O)O)[C@@H]1/C(C)=C/CO | 79.3 | 6 | 15.2 | 15 | 2 | 49 | 42.8 | – | –
8 | CC(=O)OC/C=C(\C)[C@@H]1C(C)=C[C@@H]2CC[C@@H](O)[C@H](C)[C@H]2[C@@H]1/C=C/C=C/C(=O)O | 93.5 | 18.1 | 5.4 | 39.6 | 26 | 40.2 | 48.7 | – | –
9 | CC1=C[C@@H]2CCC[C@H](C)[C@H]2[C@H](/C=C/C=C/C(=O)O)[C@@H]1/C(C)=C/CO | 100 | 21 | 0 | 38.3 | 13.2 | 51.2 | 75.5 | – | 37.5
10 | CC1=C[C@@H]2CC[C@@H](O)[C@H](C)[C@H]2[C@H](/C=C/C=C/C(=O)O)[C@@H]1/C(C)=C/CO | 98.1 | 8 | 4.8 | 33.7 | 0 | 29.7 | 42 | – | –
11 | C/C=C(\C)[C@@H]1C(C)=C[C@@H]2C[C@@H](O)C[C@H](C)[C@H]2[C@@H]1/C=C/C=C/C(=O)O | 97 | 23.3 | 9.6 | 40.9 | 15.3 | 59.4 | 78.1 | – | 19
12 | C/C=C(\C)[C@@H]1C(C)=C[C@@H]2CC(=O)C[C@H](C)[C@H]2[C@@H]1/C=C/C=C/C(=O)O | 96.9 | 24.4 | 6.3 | 49.9 | 7.9 | 65.6 | 85.1 | – | 11.8
13 | C/C=C(\C)[C@@H]1C(C)=C[C@@H]2C[C@@H](OC(C)=O)C[C@H](C)[C@H]2[C@@H]1/C=C/C=C/C(=O)O | 91.9 | 21.5 | 1.2 | 47.7 | 2.8 | 62.3 | 88.9 | – | 15.5
14 | CC(=O)OC/C=C(\C)[C@@H]1C(C)=C[C@@H]2CC[C@H](O)[C@H](C)[C@H]2[C@@H]1/C=C/C=C/C(=O)O | 95.6 | 20.7 | 3 | 56.3 | 10.5 | 61 | 85.4 | – | 13.6

Source: ChEMBL document CHEMBL4665704, “Carneic Acids from an Endophytic Phomopsis sp. as Dengue Virus Polymerase Inhibitors” (J Nat Prod, 2020)
